Data reported in patent US11318110B2, “Pharmaceutical composition for reducing local fat and uses thereof” (Caliway Biopharmaceuticals Co., Ltd., priority 2015, dated 2022).

What was measured:
[1] = tested on: rat somatic cells except adipocytes; assay: Cytotoxicity test by MTT assay (Experiment 10-1); type: cell-based; settings: 50 ppm
Excerpt: Determine if 50 ppm of caffeine and L-carnitine have toxicity to cells other than adipocytes by MTT assay. Only if the drug is deemed non-toxic will lipolysis test be proceeded.

[2] = tested on: mature adipocytes (differentiated 3T3-L1 cells); assay: Apoptosis of mature adipocytes, annexin V/PI flow cytometry (Experiment 10-2); type: cell-based; settings: 50 ppm total drug (complexes: 20 ppm curcumin + 30 ppm hydrophilic drug), 24 hours; sterile water control 0.8±0.4%
Excerpt: The curcumin cell culture medium: same as the preparation of the curcumin cell culture medium in Experiment 8-2. […] Caffeine (purchased from Sigma-Aldrich) was mixed with an appropriate amount of sterile water to obtain a caffeine solution. The caffeine solution was mixed with a cell culture medium to prepare the caffeine cell culture medium containing 50 ppm of caffeine. Wherein, the volume ratio of the caffeine cell culture medium and the cell culture medium was 1:1000. The L-carnitine cell culture medium: L-carnitine (purchased from Sigma-Aldrich) was mixed with an appropriate amount of sterile water to obtain a L-carnitine solution. The L-carnitine solution was mixed with a cell culture medium to prepare the caffeine cell culture medium containing 50 ppm of L-carnitine. Wherein, the volume ratio of the L-carnitine cell culture medium and the cell culture medium was 1:1000. The curcumin-caffeine complex cell culture medium: Curcumin and caffeine were mixed with an appropriate amount of sterile water to prepare a curcumin-caffeine complex solution. […] Wherein, the concentration of curcumin was 20 ppm, the concentration of caffeine was 30 ppm, and the volume ratio of the curcumin-caffeine complex solution and the cell culture medium was 1:1000. The curcumin-L-carnitine complex cell culture medium: Curcumin and L-carnitine were mixed with an appropriate amount of sterile water to prepare a curcumin-L-carnitine complex solution. […] Wherein, the concentration of curcumin was 20 ppm, the concentration of L-carnitine was 30 ppm, and the volume ratio of the curcumin-L-carnitine complex solution and the cell culture medium was 1:1000. […] Annexin V protein (purchased from eBioscience) and propidium iodide (PI; purchased from eBioscience) were mixed with the cells in each group for a period of time, and then the percentage of cells labeled by annexin V protein and PI in each group was analyzed by flow cytometry to assess the percentage of mature adipocytes undergoing apoptosis.

[3] = tested on: lower inguinal subcutaneous fat of rats; assay: Dosing frequency of curcumin-resveratrol complex composition, localized subcutaneous fat of rats (Experiment 7-4); type: in vivo; settings: 10.3 mg/kg on days 1, 3, 5 (total 30.9 mg/kg); 20-day experiment; control 100.0±22.6%
Experimental: (§1) Preparation of the sodium deoxycholate solution: An appropriate amount of sodium deoxycholate was mixed with sterile water for injection to make the concentration of sodium deoxycholate 2.575 mg/mL. The solution was mixed well to obtain the sodium deoxycholate solution. Wherein, sodium deoxycholate (purchased from Sigma-Aldrich, cat #D6750) is the main ingredient of the local lipolysis injection formulation ATX-101 (brand name: KYBELLA®) in the market.
(§2) Preparation of the curcumin-resveratrol complex pharmaceutical composition: same as the preparation of the curcumin-resveratrol complex solution comprising ELP described in Experiment 7-2. Wherein, the total concentration of curcumin and resveratrol was 5 mg/mL, and the ratio of curcumin to resveratrol was 4:1.
(§3) The rats were randomly assigned into 4 groups, which were a high-fat diet control group, a sodium deoxycholate group, a high-dosing frequency curcumin-resveratrol group (abbreviated as high-dosing frequency group in this experiment), and a low-dosing frequency curcumin-resveratrol group (abbreviated as low-dosing frequency group in this experiment). The rats were fed in the same manner described in Experiment 2.
(§4) The sodium deoxycholate group: The sodium deoxycholate solution was injected to the lower inguinal subcutaneous fat layer of rats in the sodium deoxycholate group. […]

[4] = Dosing frequency of curcumin-resveratrol complex composition, body weight gain of rats (Experiment 7-4); type: in vivo; settings: 10.3 mg/kg on days 1, 3, 5 (total 30.9 mg/kg); control 100.0±11.6%
Experimental: as §1, §2, §3, §4

[5] = tested on: lower inguinal subcutaneous fat of rats; assay: Dosing frequency of curcumin-green tea extract complex composition, localized subcutaneous fat of rats (Experiment 9-2); type: in vivo; settings: 10.3 mg/kg on days 1, 3, 5 (total 30.9 mg/kg); 20-day experiment; control 100.0±22.6%
Experimental: (§5) Preparation of the sodium deoxycholate solution: same as the preparation of the sodium deoxycholate solution in Experiment 7-4.
(§6) Preparation of the curcumin-green tea extract complex pharmaceutical composition: 0.8 g of curcumin was mixed with 150˜200 mL of dichloromethane and stirred at 150˜500 rpm to completely dissolve curcumin. 40 g of KOLLIPHOR® ELP (also known as CREMOPHOR® ELP, polyoxyl 35 castor oil, abbreviated as ELP) was added and stirred at 100˜300 rpm to volatilize dichloromethane. Once dichloromethane volatilized completely, normal saline for injection was slowly added to a total volume of 200 mL. Wherein, the normal saline for injection comprised 0.2 g of green tea extract. The solution was mixed well to obtain the curcumin-green tea extract complex solution comprising ELP. Said curcumin-green tea extract complex solution comprising ELP comprised drug-containing micelles, the total concentration of curcumin and green tea was 5 mg/mL, and the weight ratio of curcumin and green tea extract was 4:1
as §3, with “curcumin-green tea extract” for “curcumin-resveratrol”, “group). […]” for “group in this experiment). The rats were fed in the same manner described in Experiment 2.”

[6] = Dosing frequency of curcumin-green tea extract complex composition, body weight gain of rats (Experiment 9-2); type: in vivo; settings: 10.3 mg/kg on days 1, 3, 5 (total 30.9 mg/kg); control 100.0±11.6%
Experimental: as §5, §6
as §3, with “curcumin-green tea extract” for “curcumin-resveratrol”, “group). […]” for “group in this experiment). The rats were fed in the same manner described in Experiment 2.”

[7] = tested on: mature adipocytes (differentiated 3T3-L1 cells); assay: Apoptosis of mature adipocytes, annexin V/PI flow cytometry (Experiment 8-2); type: cell-based; settings: 50 ppm total drug (complexes: 20 ppm curcumin + 30 ppm second drug), 24 hours; DMSO control 0.8±0.2%
Excerpt: The curcumin cell culture medium: curcumin was mixed with an appropriate amount of 0.5% DMSO solution to obtain a curcumin solution. The curcumin solution was mixed with a cell culture medium (product name: Dulbecco's Modified Eagle Medium, purchased from Gibco) to prepare the curcumin cell culture medium containing 50 ppm of curcumin, wherein, the volume ratio between the curcumin solution and the cell culture medium was 1:1000. The puerarin cell culture medium: puerarin (purchased from Sigma-Aldrich) was mixed with an appropriate amount of 0.5% DMSO solution to obtain a puerarin solution. The puerarin solution was mixed with a cell culture medium to prepare the puerarin cell culture medium containing 50 ppm of puerarin, wherein, the volume ratio between the puerarin solution and the cell culture medium is 1:1000. The quercetin cell culture medium: quercetin (purchased from Sigma-Aldrich) was mixed with an appropriate amount of 0.5% DMSO solution to obtain a quercetin solution. The quercetin solution was mixed with a cell culture medium to prepare the quercetin cell culture medium containing 50 ppm of quercetin, wherein, the volume ratio between the quercetin solution and the cell culture medium was 1:1000. The synephrine cell culture medium: synephrine (purchased from Sigma-Aldrich) was mixed with an appropriate amount of 0.5% DMSO solution to obtain a synephrine solution. The synephrine solution was mixed with a cell culture medium to prepare the synephrine cell culture medium containing 50 ppm of synephrine, wherein, the volume ratio between the synephrine solution and the cell culture medium was 1:1000. The curcumin-puerarin complex cell culture medium: curcumin and puerarin were mixed with an appropriate amount of 0.5% DMSO solution to obtain a curcumin-puerarin complex solution. […] The curcumin-quercetin complex cell culture medium: curcumin and quercetin were mixed with an appropriate amount of 0.5% DMSO solution to obtain a curcumin-quercetin complex solution. […] Experimental procedure to determine the lipolysis efficacy on mature adipocytes The adipocyte precursors 3T3-L1 cells (purchased from the Food Industry Research and Development Institute, Taiwan; abbreviated as BCRC) were seeded in 12-well plates, such that each well contained 1×10^5 cells. […] Annexin V protein (purchased from eBioscience) and propidium iodide (PI; purchased from eBioscience) were mixed with the cells in each group for a period of time, and then the percentage of cells labeled by annexin V protein and PI in each group was analyzed by flow cytometry to assess the percentage of mature adipocytes undergoing apoptosis. […] The data were presented as mean±SD and analyzed by one-way ANOVA. […]

[8] = tested on: lower inguinal subcutaneous fat of rats; assay: Administered dosage of curcumin-resveratrol complex composition, localized subcutaneous fat of rats (Experiment 7-5); type: in vivo; settings: 0.04 μg/kg injected on days 1-4; 14-day experiment; high-fat diet control 100±15.2%
Experimental: LIPO-202 is a local lipolysis injection formulation currently undergoing clinical trials, and its main ingredient is salmeterol xinafonate. • (i) 1 mg of salmeterol xinafonate (purchased from Sigma-Aldrich) was mixed with an appropriate amount of methanol to a total volume of 1 mL to obtain a 1 mg/mL stock solution. • (ii) The stock solution was 10-fold serial diluted with sterile water to prepare a salmeterol xinafonate solution of a final concentration of 0.01 μg/mL, which is the LIPO-202 solution used in this experiment. same as the preparation of the curcumin-resveratrol complex solution comprising ELP described in Experiment 7-2. […] The rats were fed in the same manner described in Experiment 2. […] The LIPO-202 solution was injected to the lower inguinal subcutaneous fat layer of rats in the LIPO-202 group. […] The 1 mg/mL complex formula group: […] The 5 mg/mL complex formula group: The curcumin-resveratrol complex pharmaceutical composition was injected to the lower inguinal subcutaneous fat layer of rats in the 5 mg/mL complex formula group. […] The 10 mg/mL complex formula group: […] The 20 mg/mL complex formula group: […] Rats were injected once a day on day 1, 2, 3, and 4 of the experiment. The rats were fed with high-fat diet for the entire duration of the experiment. The experiment lasted for 14 days, and the rats were euthanized on day 15 by CO2.

C[N+](C)(C)C[C@H](O)CC(=O)[O-] [L-carnitine]
cytotoxicity (MTT assay) [1]: not cytotoxic | percentage of apoptotic cells [2]: 1.7±0.5%

sodium deoxycholate
relative weight of the lower inguinal subcutaneous fat [3]: 88.8±16.7% | relative weight gain [4]: 100.2±12.6% | relative weight of the lower inguinal subcutaneous fat [5]: 88.8±16.7% | relative weight gain [6]: 100.2±12.6%

COc1cc(/C=C/C(=O)CC(=O)/C=C/c2ccc(O)c(OC)c2)ccc1O [curcumin]
percentage of apoptotic cells [7]: 78.4±5.4% | percentage of apoptotic cells [2]: 78.4±5.4%

Cn1c(=O)c2c(ncn2C)n(C)c1=O [caffeine]
cytotoxicity (MTT assay) [1]: not cytotoxic | percentage of apoptotic cells [2]: 2.0±1.7%

O=c1c(-c2ccc(O)cc2)coc2c([C@@H]3O[C@H](CO)[C@@H](O)[C@H](O)[C@H]3O)c(O)ccc12 [puerarin]
percentage of apoptotic cells [7]: 2.0±1.6%

CNCC(O)c1ccc(O)cc1 (centres unmarked) [synephrine]
percentage of apoptotic cells [7]: 0.9±0.2%

O=c1c(O)c(-c2ccc(O)c(O)c2)oc2cc(O)cc(O)c12 [quercetin]
percentage of apoptotic cells [7]: 1.8±0.6%

OCc1cc(C(O)CNCCCCCCOCCCCc2ccccc2)ccc1O (centres unmarked) [LIPO-202, salmeterol xinafonate]
relative weight of the lower inguinal subcutaneous fat [8]: 97.8±12.8%
